Experiment: gradient 5% acetonitrile 3 min, to 50% in 2 min, to 85% in 15 min, held 3 min, 100 µL/min
Settings: column: Zorbax Extend-C18 2.1 x 50 mm; eluents: water / acetonitrile, 0.1% formic acid
Outline: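 Retention time was recorded from adduct peaks, which were picked computationally and each inspected manually. Pure standards ran in mixtures of ~100 molecules on HPLC coupled to a quadrupole time-of-flight mass spectrometer, in positive and negative ionization mode, through a Zorbax Extend-C18 column (2.1 × 50 mm, 1.8 μm) at 100 μL/min. Eluents were water and acetonitrile, each with 0.1% formic acid.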

RP-LC retention time	SMILES
774 s	CCn1cnc2ccc(-c3noc(Cc4ccccc4Cl)n3)cc21
739 s	CCc1cc(-c2csc(S(=O)(=O)NCC3CCN(Cc4ccc(Cl)cc4)CC3)c2)on1
804 s	O=C(O)c1cccc2c1C(=O)c1cccc3snc-2c13
808 s	Cc1cc(C)cc(NS(=O)(=O)c2cc3n(c2)CCN(C(C)C)C3=O)c1
780 s	COc1ccc(-c2cn3c(CC(=O)N4CCN(c5ccccc5F)CC4)csc3n2)cc1OC
616 s	CC1=NS(=O)(=O)N(C)C=C1C(=O)OCc1ccccc1C
817 s	Cc1sc2ccn(C)c(=O)c2c1C(=O)NCc1cccc(Cl)c1
1170 s	CCOc1ccc(-c2nc(Cc3noc(-c4ccccc4OC)n3)c(C)o2)cc1
592 s	COc1ccc(CN2C[C@@H](CO)[C@H](c3ccncc3)C2)cc1OC
626 s	CCN(CC)C(=O)c1ccc2oc(CN3CCN(C(=O)NCc4ccco4)CC3)nc2c1
613 s	COc1ccc(NC(=O)Cn2ccnc2-c2ccnc(N3CCOCC3)c2)c(OC)c1
821 s	O=C(C1=CN(c2ccccc2)c2ccccc2S1(=O)=O)N1CCCCC1
1370 s	CC1CCN(S(=O)(=O)c2cccnc2Nc2ccc(Cl)cc2)CC1
592 s	COc1cccc(N2CCN(C(=O)c3ccc4c(c3)NC(=O)C3CCCCN43)CC2)c1 (stereo not given)
1040 s	Cc1sc2ncnc(SCC(=O)c3ccc4c(c3)OCCO4)c2c1C
763 s	CCN1CCCn2cc(S(=O)(=O)Nc3ccc(C)cc3C)cc2C1=O
806 s	O=C(Cc1csc2nc(-c3ccccc3)cn12)NCCc1ccc(Cl)cc1
1200 s	CCOc1cccc(C2c3[nH]c4ccccc4c3CCN2C(=O)C2CCC2)c1 (stereo not given)
997 s	COc1ccc(NC(=O)Cn2cccc2-c2nnc(-c3ccccc3)o2)cc1Cl
772 s	CCc1nnc(-c2ccc(NC(=O)COc3ccccc3F)cc2)o1
873 s	CCOc1ccccc1C(=O)NC1CCN(C(=O)c2cn(-c3ccc(C)c(C)c3)nn2)CC1
662 s	Cc1ccn2cc(C(=O)N3CCN(c4ccccc4F)CC3)nc2c1
627 s	COc1ccc(OC)c(NC(=O)N2CCN(c3cc(C)nc(N4CCOCC4)n3)CC2)c1

RP-LC retention time	SMILES
1090 s	Cn1nccc1-c1cccc(-c2noc(-c3ccc(Br)o3)n2)c1
1190 s	Cc1cccc(N2CCN(c3ncc(S(=O)(=O)c4ccc(C)c(C)c4)c(N)n3)CC2)c1
774 s	Cc1noc(C)c1Cc1c(C(=O)NCCc2noc(C3CC3)n2)noc1C
743 s	CCc1noc(NC(C)=O)c1-c1ccc(C)c(S(=O)(=O)N2CCOCC2)c1
621 s	O=C(NCc1ccc(Cl)cc1)c1cn2c(n1)CCCC2
696 s	Cc1ccc(F)c(NS(=O)(=O)c2cc3n(c2)CCN(C)C3=O)c1
721 s	O=C(Cn1c(=O)cnc2cc(C(=O)NC3CCCC3)ccc21)NCc1ccc(F)cc1F
713 s	Cn1nc(C(=O)N2CCOCC2)c2c1CCN(C(=O)Nc1ccc(Br)cc1F)C2
1010 s	COc1cccc(N2C(=O)N(Cc3cccc(F)c3)S(=O)(=O)c3cccnc32)c1
951 s	COc1ccc(C(=O)Nc2sc3ccccc3c(=O)c2-c2cccs2)cc1OC
726 s	CC(=O)OC1CCN(C(=O)C(C)(C)C)CC1
1140 s	O=C(CCCc1ccccc1)N1CCCC1c1nc(-c2ccccc2Cl)no1 (stereo not given)
852 s	Cc1ccsc1C(=O)N1CCC2(CC1)NC(=O)N(Cc1cccc(Cl)c1)C2=O
721 s	O=C1C2CC3N1CCC31c3ccccc3-n3c1c2ccc3=O (stereo not given)
959 s	Cc1ccc(-c2nnc(N3CCC(C(=O)NCC4CCCCC4)CC3)o2)cc1
1000 s	COc1cccc(Cn2c(=O)c3sccc3n(Cc3nc(-c4ccccc4)no3)c2=O)c1
838 s	Cc1ccc(Nc2c(-c3ccc([N+](=O)[O-])cc3)nc3ccc(C)cn23)cc1
914 s	Cc1ccc(-n2nc(N3CCCN(S(=O)(=O)c4ccccc4F)CC3)ccc2=O)cc1C
1160 s	Cc1oc(-c2ccccc2)nc1Cc1noc(-c2cccc(F)c2)n1
718 s	CC1CCCN(C(=O)CN(C)S(=O)(=O)c2ccc3c(c2)CCCC(=O)N3)C1 (stereo not given)
697 s	Cn1cnc2cc(-c3noc(C4CC(=O)N(c5cccc(Cl)c5)C4)n3)ccc21 (stereo not given)
632 s	CCCCN1CCN(C(=O)c2c(C)sc3ccn(CC(C)C)c(=O)c23)CC1
946 s	CC(C)c1ccc(-c2cc3c4nn(CC(=O)NCc5ccco5)c(=O)n4ccn3n2)cc1

RP-LC retention time	SMILES
721 s	CCn1cnc(S(=O)(=O)N2CCC(C(=O)NCc3cccc(C)c3)CC2)c1
574 s	CN(C)c1ccc2c(c1)CN(C(=O)C1CC1)CCO2
633 s	CCCNC(=O)Cn1nc2cc(-c3ccc(OC)cc3)nc(C)n2c1=O
1150 s	O=C(c1nc2ccccc2s1)N1CCC(COCc2ccccc2)CC1
542 s	COCCN1C(=O)CCC2(C(=O)NCCc3ccncc3)CCCC=C12 (stereo not given)
691 s	O=C(CCc1c(-c2ccccc2)nc2ccccn12)NCc1cccc(Br)c1
811 s	CCc1nnc(-c2ccc3ccn(CC(=O)Nc4ccc(C(=O)OC)cc4)c3c2)o1
753 s	CCc1cccc(NC(=O)C2(C)CCCCC(=O)N2)c1 (stereo not given)
834 s	O=c1c2nc(-c3ccc4c(c3)OCO4)cn2ccn1-c1cccc(Cl)c1
928 s	CN(C)c1ccc(N2C=C(C(=O)N3CCCC3)S(=O)(=O)c3ccc(Cl)cc32)cc1
583 s	O=C(NCCc1ccccc1)N1CCCn2nc(-c3ccncc3)cc2C1
659 s	Cn1nc(C2CCN(C(=O)C3CCC3)CC2)c2c1CCOC2
649 s	Cc1cc(C(=O)NCC2CCN(C(=O)NC(C)(C)C)CC2)no1
668 s	CCCNC(=O)C1CCCN(C(=O)c2[nH]c(C)c(C(=O)OC)c2C)C1 (stereo not given)
625 s	Cc1nc2ncnn2c(N2CCOCC2)c1C
942 s	Cc1ccc(CNC(=O)C2(C)CN(S(=O)(=O)c3ccccc3)CC(=O)N2c2ccc(F)cc2)cc1 (stereo not given)
623 s	COc1ccc(-n2nc(C(=O)N3CCN(c4ccccn4)CC3)c(=O)n(C)c2=O)cc1
671 s	CC(C)(C)n1nnnc1C1CC2(CCOCC2)C(=O)N1Cc1ccc(F)cc1Cl (stereo not given)
624 s	COCCNC(=O)c1ccc(-c2ccc(N3CCSCC3)nc2)cc1
550 s	CN(CC(=O)N1CCN(c2ccccn2)CC1)c1nnc(N2CCCC2=O)s1
648 s	O=C(NCCCN1CCCCCC1)c1nnc(-c2ccc(S(=O)(=O)N3CCCC3)cc2)o1
938 s	Cc1csc(-n2nc(C)c(CC(=O)Nc3ccccc3F)c2C)n1
660 s	CCCC(=O)NC1CCN(c2ccccc2)C1=O (stereo not given)

RP-LC retention time	SMILES
604 s	O=C(NC1CCN(Cc2ccccc2)CC1)C1CCCN(c2ncnc3c2oc2ccccc23)C1 (stereo not given)
787 s	Cc1ccc2c(c1)N(C(=O)Cn1c(C(C)C)nc3c(c1=O)CCN(Cc1ccccc1)C3)CCO2
619 s	O=C(CC1CCN(C(=O)c2ccc3oc(C4CC4)nc3c2)CC1)N1CCOCC1
637 s	NC(=O)c1[nH]c2ccc(F)cc2c1N1CCCC1=O
574 s	CCNc1cc(N2CCC(CCC(=O)NCc3ccc(F)cc3)CC2)ncn1
1090 s	CC(Oc1cccc2ccccc12)c1nc2c3ccccc3ncn2n1 (stereo not given)
640 s	CCC(=O)N1CCc2c(C(=O)NCc3ccc(N4CCC(C)CC4)cc3)cccc21
601 s	O=C([C@@H]1C[C@H](Oc2cccnc2)CN1C(=O)Cn1c(=O)oc2ccccc21)N1CCCC1
656 s	COCCNC(=O)Cn1c(=O)n(-c2ccc(C)cc2)c2ncccc21
614 s	Cc1cc(N2CCN(C)CC2)nc2ccc(NC(=O)NCCc3ccccc3)cc12
855 s	COc1ccc(-c2nc(CNC(=O)c3ccc(-n4cccn4)nn3)cs2)cc1
923 s	CCOCCCNC(=O)c1cn(C)nc1S(=O)(=O)N1CCN(c2ccccc2OCC)CC1
688 s	Cc1cc(NC(=O)Cn2cnc3c(cnn3C(C)(C)C)c2=O)no1
1040 s	CC(C)c1cccc(NC(=O)c2nc(N3CCSCC3)c3cnn(C)c3n2)c1
959 s	COC(=O)c1cccc(C(=O)N2CCN(c3cc(C)ccc3C)CC2)n1
958 s	Cc1ccc(CNC(=O)c2cc3sccc3n2C)cc1
1030 s	Cc1nn(-c2nc(-c3ccc(Cl)cc3)cs2)c(C)c1CC(=O)N1CCOCC1
792 s	COc1ccc(-c2nc3ncccn3c2Nc2cc(C)ccc2C)cc1
806 s	O=C(NC(Cc1ccccc1)c1nnc(N2CCSCC2)o1)C1CCCC1 (stereo not given)
880 s	CCc1cccc(C)c1NC(=O)C1CCN(S(C)(=O)=O)c2ccccc2O1 (stereo not given)

SMILES	RP-LC retention time
COc1ccc2c(c1)C1(CCN(S(=O)(=O)c3ccccc3F)C1)C(=O)N2C (stereo not given)	901 s

Reference: the METLIN SMRT retention time set (Domingo-Almenara et al. 2019)
